From publication PMC6895180 (Nature Communications, 2019)
Several values for one entry are separate records, joined by “and”; a condition that tells them apart may be missing. Identical values can stand only once. Like-named read-outs stand apart in the source and are kept apart here. Marks after values point to notes of the source that are not given here.

Legend:
[1] = test system: T. brucei Squib 427; test: microbe, parasite or virus in culture; type: cell-based, Trypanosoma brucei brucei; conditions: for SI (MRC/T.b. brucei): selectivity index
[2] = test system: T. b. rhodesiense STIB-900; test: microbe, parasite or virus in culture; type: cell-based, Trypanosoma brucei rhodesiense; conditions: for SI (MRC/T.b. rhodesiense): selectivity index
[3] = test system: T. b. brucei Lister 427WT; test: Drug susceptibility test (resazurin), Lister 427WT; type: cell-based, Trypanosoma brucei brucei
Procedure, shortened: (§1)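 Trypanosomes (2 × 10^4 cells/well) exposed 48 h at 37 °C/5% CO2 in HMI-9/FBS to 23-step doubling dilutions from 100 µM, then resazurin added for a further 24 h. Fluorescence fitted to a variable-slope sigmoid curve.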

[4] = test system: ISMR1: isometamidium-resistant T. brucei cell line; test: microbe, parasite or virus in culture; type: cell-based, Trypanosoma brucei brucei; conditions: for RF (ISMR1): resistance factor vs Lister 427WT
Procedure, shortened: as §1

[5] = test system: TbAT1-KO: T. brucei cell line lacking the TbAT1(P2) transporter gene; test: microbe, parasite or virus in culture; type: cell-based, Trypanosoma brucei brucei; conditions: for RF (TbAT1-KO): resistance factor: ratio of EC50 of resistant and Lister 427WT
Procedure, shortened: as §1

[6] = test system: B48: pentamidine, diminazene and melaminophenyl arsenical resistant T. brucei line; test: microbe, parasite or virus in culture; type: cell-based, Trypanosoma brucei brucei; conditions: for RF (B48): resistance factor vs Lister 427WT
[7] = target: P1 transporter; type: cell-based, Trypanosoma brucei
Description: Non-specific association of radiolabel with the cell pellet was determined using an identical incubation in the presence of saturating (1 mM) unlabelled adenosine.

[8] = test system: T. brucei s427 wildtype cells; test: Microscopy of trypanosome cell morphology (DAPI); type: cell-based, Trypanosoma brucei; conditions: 2× and 5× EC50; 6 h and especially 12 h
Description: Growth assays of T. brucei
To test the effect of the novel adenosine analogues on the growth of T. brucei BSF, s427 wildtype cells were seeded at 1×10^5 cells mL-1 in 5 mL of HMI-9 medium with 10% FBS and treated with compounds […]
cells were also incubated in drug-free medium under the same conditions. 2 μM of 2’-deoxycoformycin were added to all cultures to avoid any potential effect of serum adenosine deaminase on the activity of test compounds and cordycepin.1
Cells were manually counted in Neubauer chambers at 0, 2, 4, 6, 8, 12, 24, 36 and 48 h after addition of the drugs. At 6 and 12 h, cells were also collected and fixed to have their structure checked by […]
Wash-out experiments with T. brucei
A culture of bloodstream form T. brucei 427WT, at mid-log phase of growth, was harvested and resuspended at a density of 10^5 cells mL-1, in fresh medium containing either no test compound, or […]
The cultures were incubated under standard conditions (37 °C/5% CO2) and cell counts were performed manually using a haemocytometer under phase contrast microscopy, every 24 h. The culture in continuous presence of analogue 9 was split in two at 8 h and 48 h (as indicated with arrows in Supplementary Figure S2). The split cultures were centrifuged and resuspended in the same volume of either fresh medium without test compound or fresh medium with the same concentration of compound 9 as before, reincubated. The detection limit for the manual cell count was 10^4 cells mL-1.
After 6 and 12 h after addition of drugs, approximately 2×10^6 cells were harvested from each group and applied to glass slides pre-treated with poly-L-lysine, left to settle for 5 min and fixed with 4% formaldehyde for 4 min. The formaldehyde was neutralised by addition of 100 mM glycine (20 min).
Cells were washed once with PBS and blocked for 1 h with 1% BSA/0.2% Tween-20 in PBS. Cells were […]
A coverslip was then placed on top of the wells and sealed with nail varnish.
Metabolic stability of nucleoside analogue 9 […]
and B (Corning) were kept at -20°C. The test compound and the reference compounds diclofenac (MW […]

[9] = Trypanosoma brucei, Alamar blue cell viability assay, mean and SEM, read-out: T. b. brucei EC50
[10] = Trypanosoma brucei, RHODESIENSE, Alamar blue cell viability assay, mean and SEM, read-out: T. b. rhodesiense EC50
[11] = Trypanosoma brucei, RHODESIENSE, source data, read-out: T. brucei rhodesiense EC50, Average
[12] = Trypanosoma brucei, RHODESIENSE, source data, read-out: T. brucei rhodesiense EC50, single measurements
[13] = source data, read-out: T. brucei rhodesiense EC50, single measurements
[14] = Trypanosoma brucei, source data, read-out: s427 EC50, AVG
[15] = Trypanosoma brucei, source data, read-out: s427 EC50, single determinations
[16] = source data, read-out: s427 EC50, single determinations
[17] = Trypanosoma brucei, mean and SEM, n = 3, read-out: ISMR1 EC50
[18] = Trypanosoma brucei, source data, read-out: ISMR1 EC50, AVG
[19] = Trypanosoma brucei, source data, read-out: ISMR1 EC50, single determinations
[20] = source data, read-out: ISMR1 EC50, single determinations
[21] = Trypanosoma brucei, read-out: TbAT1-KO EC50, mean and SEM, n = 3
[22] = Trypanosoma brucei, read-out: TbAT1-KO EC50, single determinations, source data
[23] = read-out: TbAT1-KO EC50, single determinations, source data
[24] = Trypanosoma brucei, mean and SEM, n = 3, read-out: B48 EC50
[25] = source data, read-out: P1 transporter Ki, AVG
[26] = Trypanosoma brucei, source data, read-out: T. brucei brucei EC50, Average
[27] = Trypanosoma brucei, mean and SEM, n = 3, read-out: Lister 427 EC50
[28] = Trypanosoma brucei, read-out: TbAT1-KO EC50, AVG, source data
[29] = inhibition of [3H]adenosine uptake, mean ± SEM, n = 3, read-out: P1 transporter Ki

| SMILES | EC50 [1, 9] [nM] | SI (MRC/T.b. brucei) [1] | EC50 [2, 10] [nM] | EC50 [2, 11] [nM] | EC50 [2, 12] [nM] | SI (MRC/T.b. rhodesiense) [2] | EC50 [2, 13] [nM] | EC50 [3, 14] [nM] | EC50 [3, 15] [nM] | EC50 [3, 16] | EC50 [4, 17] [nM] | EC50 [4, 18] [nM] | EC50 [4, 19] [nM] | RF (ISMR1) [4] | EC50 [4, 20] | EC50 [5, 21] [nM] | EC50 [5, 23] | EC50 [6, 24] [nM] | Ki [7, 25] [nM] | cell morphology [8] | other results |
| --- | --- | --- | --- | --- | --- | --- | --- | --- | --- | --- | --- | --- | --- | --- | --- | --- | --- | --- | --- | --- | --- |
| Nc1ncnc2c1c(Br)cn2[C@@H]1O[C@H](CO)[C@@H](O)[C@H]1O [Compound 8, 7-bromotubercidin] | 1200 ± 300 | 10 | 120 ± 20 | 120 | 106 | 107 | 136 | 315 | 364 | 309 nM and 273 nM | 1530 ± 157 | 1530 | 1390 | 4.85** | 1100 nM and 2070 nM and 1520 nM | 825 ± 17.3 | 858 nM and 798 nM | 448 ± 196 | 7100 | clear aberrant morphology | EC50 ([3]; Trypanosoma brucei, read-out: Lister 427 EC50, mean and SEM, n = 3): 320 ± 270 nM; EC50 [5, 22]: 820 nM; RF (TbAT1-KO) [5]: 2.62***; RF (B48) [6]: 1.42 |
| Nc1ncnc2c1ccn2[C@@H]1O[C@H](CO)C[C@H]1O [Compound 9, 3’-deoxytubercidin] | 48 ± 9 | >1333 | 0.52 ± 0.04 | 0.521 | 0.484 | >123,077 | 0.557 | 33.3 | 32 | 35.5 nM and 32.4 nM | 32.4 ± 3.8 | – | 39.2 | 0.97 | 32 nM and 26 nM | 375 ± 12 | 397 nM and 357 nM | 368 ± 13 | 108000 | clear aberrant morphology | EC50 [1, 26]: 47.7 nM; EC50 ([1]; Trypanosoma brucei, source data, read-out: T. brucei brucei EC50, single measurements): 39.9 nM; EC50 ([1]; source data, read-out: T. brucei brucei EC50, single measurements): 65.2 nM and 38 nM; EC50 [3, 27]: 33 ± 1 nM; EC50 [5, 28]: 374 nM; EC50 [5, 22]: 370 nM; EC50 ([6]; Trypanosoma brucei, source data, read-out: B48 EC50, single determinations): 378 nM; EC50 ([6]; source data, read-out: B48 EC50, single determinations): 383 nM and 343 nM; Ki [7, 29]: 99900 ± 21700 nM |
| Nc1ncnc2c1c(Br)cn2[C@@H]1O[C@H](CO)C[C@H]1O [Compound 10, 3’-deoxy-7-Br-tubercidin] | 1.3 ± 0.3 | 11,462 | 0.4 ± 0.09 | 0.398 | – | 37,500 | 0.5 | 1.76 | – | – | 1.1 ± 0.2 | 1.11 | – | 0.63 | – | 2.1 ± 0.25 | 1.94 nM | 1.3 ± 0.3 | 10100 | clear aberrant morphology | EC50 [1, 26]: 1.29 nM; EC50 [3, 27]: 1.8 ± 0.3 nM; EC50 [5, 28]: 2.12 nM; RF (TbAT1-KO) [5]: 1.2; EC50 ([6]; Trypanosoma brucei, source data, read-out: B48 EC50, AVG): 1.32 nM; RF (B48) [6]: 0.75; fold improvement of affinity for P1 ([7]; 10 versus 9 (bromine at 7-position)): 10 fold; Ki ([7]; Cheng–Prusoff from IC50, read-out: P1 transporter Ki, single experiments): 13400 nM and 8500 nM and 8400 nM; Ki [7, 29]: 9470 ± 1400 nM |
